# Results from PMC6384703, “Astilbin Inhibits the Activity of Sortase A from Streptococcus mutans” (Molecules, 2019).
# Target: T1, sortase A (SrtA) (Streptococcus mutans, UniProt Q8CM62)
# T1 construct: His-tagged recombinant SrtA from a 741 bp DNA fragment (pET28SmsrtA), S. mutans ATCC 25175
# Assay: FRET assay with purified SrtA and fluorescent peptide Abz-LPATG-Dap(Dnp)-NH2; supported by mutants with reduced inhibition
# Assay type: biochemical
# T1 sequence (Q8CM62 entry or part of it): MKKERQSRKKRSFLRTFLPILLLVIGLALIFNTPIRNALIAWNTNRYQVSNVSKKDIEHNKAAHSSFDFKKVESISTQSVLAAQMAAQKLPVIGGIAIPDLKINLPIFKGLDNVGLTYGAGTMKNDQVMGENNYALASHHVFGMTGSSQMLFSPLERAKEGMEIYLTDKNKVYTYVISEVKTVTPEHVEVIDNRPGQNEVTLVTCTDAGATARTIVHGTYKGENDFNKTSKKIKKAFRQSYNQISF
smiles,measurement,value
C[C@@H]1O[C@@H](O[C@H]2C(=O)c3c(O)cc(O)cc3O[C@@H]2c2ccc(O)c(O)c2)[C@H](O)[C@H](O)[C@H]1O [astilbin],IC50,16.7 µM
